From patent US6642222B2, “Pyrano, piperidino, and thiopyrano compounds and methods of use” (Abbott Laboratories, priority 1998, dated 2003)

How the values were obtained:
Landrace Pig Bladder = experiment: Functional potassium channel opening activity in isolated bladder strips (field-stimulated twitch); details: for Index: ED50 for P1075 divided by ED50 for the test agonist, averaged over tissues; for Efficacy (% P1075) / Emax: maximal efficacy relative to P1075, field stimulated bladder strips; for pD2 / EC50: negative logarithm of ED50; for Emax / EC50: Sus scrofa; for EC50: read-out: pD2 (converted)
Procedure: Compounds were evaluated for functional potassium channel opening activity using tissue strips obtained from Landrace pig bladders. Landrace pig bladders were obtained from female Landrace pigs of 9-30 kg. Landrace pigs were euthanized with an intraperitoneal injection of pentobarbital solution, Somlethal®, J. A. Webster Inc. Sterling Mass. The entire bladder was removed and immediately placed into Krebs Ringer bicarbonate solution (composition, mM: NaCl, 120; […] Dextrose, 4.7; […] Propranolol (0.004 mM) was included in all of the assays to block β-adrenoceptors. The trigonal and dome portions were […], Strips 3-5 […] (mm) wide and 20 mm long were prepared from the remaining tissue cut in a circular fashion. The mucosal layer was removed. One end was fixed to a stationary glass rod and the other to a Grass FT03 transducer at a basal preload of 1.0 g. Two parallel platinum electrodes were included in the stationary glass trod to provide field stimulation of 0.05 Hz, 0.5 milli-seconds at 20 volts. […] Tissues were allowed to equilibrate for at least 60 minutes and primed with 80 mM KCl. A control concentration response curve (cumulative) was generated for each tissue using the potassium channel opener […] as the control agonist. […] After a 60 minute rinsing period, a concentration response curve (cumulative) was generated for the test agonist in the same fashion as that used for the control agonist […]. The maximal efficacy of each compounds (expressed as % relative to […]) is reported. The amount of agent necessary to cause 50% of the agent's maximal response (ED50) was calculated using “ALLFIT” (DeLean et al., Am. J. […] Agonist potencies were also expressed as an index relative to […]. The index was calculated by dividing the ED50 for […] by the ED50 for the test agonist in a given tissue. Each tissue was used for only one test agonist, and the indices obtained from each tissue were averaged to provide an average index of potency.

[1] = test system: Guinea-Pig Bladder (GPB) Cells; experiment: Membrane Hyperpolarization (MHP) assay, DiBAC(4)3 / FLIPR; details: for Maximal Response (% P1075): maximal steady-state hyperpolarization, normalized to 10 μM P1075 (100%); for EC50: membrane hyperpolarization, GPB cells; for Emax: read-out: Maximal Response (% P1075), maximal steady-state hyperpolarization, normalized to 10 μM P1075 (100%)

EC50 [1] | EC50 (Landrace Pig Bladder) | SMILES | Index (Landrace Pig Bladder) | Efficacy (% P1075) (Landrace Pig Bladder) | pD2 (Landrace Pig Bladder) | Maximal Response (% P1075) [1] | Emax (Landrace Pig Bladder) | Emax ([1]; Cavia porcellus) | other results
– | – | CC1(C)OC(=O)C2=C1NC1=C(C(=O)COC1)C2c1ccc(F)c(Br)c1 (stereo not shown) [Example 99, 9-(3-bromo-4-fluorophenyl)-3,3-dimethyl-5,9-dihydro-3H-furo[3,4-b]pyrano[4,3-e]pyridine-1,8(4H,7H)-dione] | – | – | – | – | – | – | melting point: > 260 °C
– | – | CCC1OC(=O)C2=C1NC1=C(C(=O)COC1)C2c1ccc(F)c(Br)c1 (single isomer, unassigned) [Example 95, 9-(3-bromo-4-fluorophenyl)-3-ethyl-5,9-dihydro-3H-furo[3,4-b]pyrano[4,3-e]pyridine-1,8(4H,7H)-dione] | – | – | – | – | – | – | melting point: 161 to 162 °C
1100 nM | – | N#Cc1cccc(C2C3=C(COCC3=O)NC3=C2C(=O)COC3)c1 [Example 29, 5-(3-cyanophenyl)-5,10-dihydro-1H,3H-dipyrano[3,4-b:4,3-e]pyridine-4,6(7H,9H)-dione] | 0.075 | 89 % P1075 | 5.8 | 87 % P1075 | – | – | –
– | 2510 nM | O=C1CCCC2=C1C(c1ccc(F)c(Br)c1)C1=C(COCC1=O)N2 (stereo not shown) [Example 20, 5-(3-bromo-4-fluorophenyl)-5,8,9,10-tetrahydro-1H-pyrano[3,4-b]quinoline-4,6(3H, 7H)-dione] | 0.43 | – | – | – | 93% | 93% | EC50 ([1]; Cavia porcellus): 35 nM
– | 631 nM | O=C1COCC2=C1[C@@H](c1ccc(F)c(Br)c1)C1=C(COC1=O)N2 (single isomer, unassigned) [Example 42] | 0.17 | – | – | – | 95% | 102% | EC50 ([1]; Cavia porcellus): 26 nM
14 nM | – | O=C1COCC2=C1C(c1ccc(F)c(Br)c1)C1=C(CCS1(=O)=O)N2 (single isomer, unassigned; (+)) [Example 12, (+)-9-(3-bromo-4-fluorophenyl)-2,3,5,9-tetrahydro-4H-pyrano[3,4-b]thieno[2,3-e]pyridin-8(7H)-one 1,1-dioxide] | 3.3 | 85 % P1075 | 7.2 | 101 % P1075 | – | – | –
4000 nM | – | O=C1COCC2=C1C(c1ccc(F)c(-c3ccco3)c1)C1=C(COCC1=O)N2 [Example 57, 5-[4-fluoro-3-(2-furyl)phenyl]-5,10-dihydro-1H,3H-dipyrano[3,4-b:4,3-e]pyridine-4,6(7H,9H)-dione] | 0.090 | 45 % P1075 | 5.6 | 69 % P1075 | – | – | –
– | 200 nM | O=C1COCC2=C1[C@H](c1ccc(F)c(Br)c1)C1=C(COC1=O)N2 (single isomer, unassigned) [Example 43] | 0.68 | – | – | – | 88% | 98% | EC50 ([1]; Cavia porcellus): 11 nM
– | 5010 nM | Cl.O=C1CCC2=C1C(c1ccc(F)c(Cl)c1)C1=C(CNCC1=O)N2 (stereo not shown) [Example 38, 5-(3-chloro-4-fluorophenyl)-2,3,5,7,8,9-hexahydro-1H-cyclopenta[b][1,7]naphthyridine-4,6-dione Hydrochloride] | 0.024 | – | – | – | 80% | 82% | EC50 ([1]; Cavia porcellus): 390 nM
– | – | C[C@@H]1OCC(=O)C2=C1NC1=C(C(=O)OC1)[C@H]2c1ccc(F)c(Br)c1 (relative stereo) [Example 89, (cis)-9-(3-bromo-4-fluorophenyl)-5-methyl-5,9-dihydro-3H-furo[3,4-b]pyrano[4,3-e]pyridine-1,8(4H,7H)-dione] | – | – | – | – | – | – | melting point: 260 to 263 °C
– | – | C[C@@H]1OC(=O)C2=C1NC1=C(C(=O)COC1)[C@H]2c1ccc(F)c(Br)c1 (relative stereo) [Example 100, (cis)-9-(3-bromo-4-fluorophenyl)-3-methyl-5,9-dihydro-3H-furo[3,4-b]pyrano[4,3-e]pyridine-1,8(4H,7H)-dione] | – | – | – | – | – | – | melting point: 230 to 233 °C
640 nM | 2000 nM | N#Cc1cccc(C2C3=C(COCC3=O)NC3=C2S(=O)(=O)CC3)c1 (single isomer, unassigned; (+)) [Example 15, (+)9-(3-cyanophenyl)-2,3,5,9-tetrahydro-4H-pyrano [3,4-b]thieno[2,3-e]pyridin-8(7H)-one 1,1-dioxide] | 0.027 | – | – | 90 % P1075 | 100% | – | –
3.9 nM | – | O=C1COCC2=C1C(c1ccc(Br)c(Br)c1)C1=C(COCC1=O)N2 [Example 55, 5-(3,4-dibromonhenyl)-5,10-dihydro-1H,3H-dipyrano [3,4-b:4,3-e]pyridine-4,6(7H,9H)-dione] | 0.35 | 80 % P1075 | 6.2 | 108 % P1075 | – | – | –
58 nM | – | O=C1COCC2=C1C(c1ccc(Cl)c([N+](=O)[O-])c1)C1=C(CCS1(=O)=O)N2 (single isomer, unassigned; (+)) [Example 18, (+)-9-(4-chloro-3-nitrophenyl)-2,3,5,9-tetrahydro-4H-pyrano[3,4-b]thieno[2,3-e]pyridin-8(7H)-one 1,1-dioxide] | 1.6 | – | 7.3 | 95 % P1075 | 100% | – | –
64 nM | – | O=C1COCC2=C1C(c1ccc(Cl)c([N+](=O)[O-])c1)C1=C(COCC1=O)N2 [Example 28, 5-(4-chloro-3-nitrophenyl)-5,10-dihydro-1H,3H-dipyrano[3,4-b:4,3-e]pyridine-4,6(7H,9H)-dione] | 0.42 | 94 % P1075 | 6.7 | 98 % P1075 | – | – | –
1300 nM | – | O=C1COCC2=C1C(c1cc(Br)ccc1O)C1=C(COCC1=O)N2 [Example 31, 5-(5-bromo-2-hydroxyphenyl)-5,10-dihydro-1H,3H-dipyrano[3,4-b:4,3-e]pyridine-4,6(7H,9H)-dione] | 0.065 | 85 % P1075 | 5.1 | 83 % P1075 | – | – | –
23 nM | – | O=C1COCC2=C1C(c1ccc(F)c(Br)c1)C1=C(CCS1(=O)=O)N2 (stereo not shown) [Example 11, 9-(3-bromo-4-fluorophenyl)-2,3,5,9-tetrahydro-4H-pyrano[3,4-b]thieno[2,3-e]pyridin-8(7H)-one 1,1-dioxide] | 1.2 | – | 6.8 | – | 91% | 104% | –
3.4 nM | – | O=C1COCC2=C1C(c1ccc(Cl)c(Cl)c1)C1=C(COCC1=O)N2 [Example 33, 5-(3,4-dichlorophenyl)-5,10-dihydro-1H,3H-dipyrano[3,4-b:4,3-e]pyridine-4,6(7H,9H)-dione] | 0.27 | 93 % P1075 | 5.9 | 92 % P1075 | – | – | –
– | – | Cl.O=C1CCC2=C1C(c1ccc(F)c(Br)c1)C1=C(CNCC1=O)N2 (single isomer, unassigned; (-)) [Example 5, (−)-5-(3-bromo-4-fluorolphenyl)-2,3,5,7,8,9-hexahydro-1H-cyclopenta[b][1,7]naphthyridine-4,6-dione Hydrochloride] | – | 100 % P1075 | – | – | – | – | Index (Landrace Pig Bladder; Hydrochloride): 0.16; pD2 (Landrace Pig Bladder; Hydrochloride): 6.4; Maximal Response (% P1075) ([1]; Hydrochloride): 97 % P1075; EC50 ([1]; Hydrochloride): 190 nM
– | 1000 nM | Cl.O=C1CNCC2=C1C(c1ccc(F)c(Br)c1)C1=C(COCC1=O)N2 (stereo not shown) [Example 24, 5-(3-bromo-4-fluorophenyl)-5,8,9,10-tetrahydro-1H-pyrano[3,4-b][1,7]naphthyridine-4,6(3H,7H)-dione Hydrochloride] | 0.055 | – | – | – | 100% | 74% | EC50 ([1]; Cavia porcellus): 730 nM
– | 158 nM | O=C1COCC2=C1[C@@H](c1ccc(F)c(I)c1)C1=C(COC1=O)N2 (single isomer, unassigned) [Example 79] | 0.40 | – | – | – | 95% | 90% | EC50 ([1]; Cavia porcellus): 14 nM
1800 nM | – | O=C1COCC2=C1C(c1ccc(Cl)c([N+](=O)[O-])c1)C1=C(CCS1(=O)=O)N2 (single isomer, unassigned; (-)) [Example 19, (−)-9-(4-chloro-3-nitrophenyl)-2,3,5,9-tetrahydro-4H-pyrano[3,4-b]thieno[2,3-e]pyridin-8(7H)-one 1,1-dioxide] | 0.70 | 100 % P1075 | 6.0 | 94 % P1075 | – | – | –
